Our source for the mortality values is US4871719A, “Composition for controlling parasites in productive livestock” (Ciba-Geigy Corporation, priority 1987, dated 1989).

This test deals with L1 larvae of Lucilia sericata. Kind of test: Action against L1 larvae of Lucilia sericata. It counts as in vivo. To be noted: 96 h, read-out: action (mortality count). As to the method: 1 ml of an aqueous suspension of test compound is mixed with 3 ml of a special larval culture medium at about 50° C. such that a homogeneous composition containing 250 ppm or 125 ppm of active ingredient is obtained. About 30 Lucilia sericata larvae (L1) are put into each test tube sample. A mortality count is made after 4 days. The compounds of formula I, such as, for example, Nos. 3.2, 3.6, 3.7, 3.10, 3.34 and 3.38, achieved 100% action at 125 ppm.
As a reminder, the mortality is the share of the test organisms that died. With `COCCOC1CC[C@@]2(O1)/C(C)=C/C[C@@H]1C[C@@H](C[C@]3(CC[C@H](C)[C@@H](C(C)C)O3)O1)OC(=O)[C@@H]1C=C(C)[C@@H](O)[C@H]3OC/C(=C\C=C\[C@@H]2C)[C@]31O` (single isomer, unassigned) [Compound 3.34], the mortality at 125 ppm is 100%.

As to `CCOC1CC[C@@]2(O1)/C(C)=C/C[C@@H]1C[C@@H](C[C@]3(CC[C@H](C)[C@@H](C(C)C)O3)O1)OC(=O)[C@@H]1C=C(C)[C@@H](O)[C@H]3OC/C(=C\C=C\[C@@H]2C)[C@]31O` (stereo partly drawn) [Compound 3.6], the mortality at 125 ppm stood at 100%.

In the case of `CCCOC1CC[C@@]2(O1)/C(C)=C/C[C@@H]1C[C@@H](C[C@]3(CC[C@H](C)[C@@H](C(C)C)O3)O1)OC(=O)[C@@H]1C=C(C)[C@@H](O)[C@H]3OC/C(=C\C=C\[C@@H]2C)[C@]31O` (single isomer, unassigned) [Compound 3.7], the mortality at 125 ppm was 100%.

Take `CC1=C[C@H]2C(=O)O[C@H]3C[C@@H](C/C=C(\C)[C@]4(CCC(OC(C)C)O4)[C@@H](C)/C=C/C=C4\CO[C@H]([C@@H]1O)[C@@]42O)O[C@@]1(CC[C@H](C)[C@@H](C(C)C)O1)C3` (single isomer, unassigned) [Compound 3.10]: the mortality at 125 ppm amounted to 100%.

Take `CCOCCOC1CC[C@@]2(O1)/C(C)=C/C[C@@H]1C[C@@H](C[C@]3(CC[C@H](C)[C@@H](C(C)C)O3)O1)OC(=O)[C@@H]1C=C(C)[C@@H](O)[C@H]3OC/C(=C\C=C\[C@@H]2C)[C@]31O` (stereo partly drawn) [Compound 3.38]: the mortality at 125 ppm worked out at 100%.

With `COC1CC[C@@]2(O1)/C(C)=C/C[C@@H]1C[C@@H](C[C@]3(CC[C@H](C)[C@@H](C(C)C)O3)O1)OC(=O)[C@@H]1C=C(C)[C@@H](O)[C@H]3OC/C(=C\C=C\[C@@H]2C)[C@]31O` (single isomer, unassigned) [Compound 3.2], the mortality at 125 ppm turned out to be 100%.
